Source: patent US5652222A, “Selective inhibition of leukemic cell proliferation by bcr-abl antisense oligonucleotides” (Temple University-of The Commonwealth System of Higher …, priority 1993, dated 1997)

Key:
BV173 cells (b2/a2) = assay: Proliferation of BV173 cells expressing b2a2 junction; assay type: cell-based, human; conditions: in comparison to untreated control cells (FIG. 7)
Description: Amplification of the bcr-abl junction with a 5' primer corresponding to bcr exon 2, and a 3' primer corresponding to abl exon 2, followed by hybridization to an 18-mer specific for the b2/a2 or the b3/a2 junction identified the b2/a2 breakpoint in these cells (data not shown).
The sensitivity of the BV173 cells to b2/a2 antisense phosphorothioate oligodeoxynucleotides was assessed. Phosphorothioate oligodeoxynucleotides were prepared on either an Applied Biosystems Model 380B or 390Z Automated Synthesis instrument using conventional phosphoramidite monomers and manufacturer-recommended procedures, which included substitution of tetraethylthiuran (or an equivalent sulfur-donor reagent) for iodine-water-pyridine, […] reversed-phase preparative chromatography, detritylation, and obtaining the final product in the form of its sodium salt, all according to previously published methodology: Zon and Stec, in Oligonucleotides and Analogues A Practical Approach, F. Eckstein, Ed. (Oxford Univerisity Press, Oxford 1991), pp. 87-108; Zon and Geiser, Anti-Cancer Drug Design 6, 539 (1991); Vu and Hirschenbein, Tetrahedron Lett. 32, 3005-3008 (1991).
BV173 cells were cultured in the presence of phosphorothioate b2/a2 antisense 26-mer CGCTGAAGGG CTTCTTCCT ATTGAT (SEQ ID NO:29), the phosphorothioate sense sequence ATCAATAAGGAAGCCCTTCAGCG (SEQUENCE ID NO:34), or the b3/a2 (SEQ ID NO:31) or b1/a2 (SEQ ID N0:33) phosphorothioate antisense 26-mer. […] The sense oligomer SEQ ID NO:34 gave no inhibition (FIG. 7, -.largecircle.-) in comparison to untreated control cells (FIG. 7, -.quadrature.-).

[1] = tested on: BV173 cells (cALL antigen (CALLA)-positive cells); assay: Immunofluorescence / flow cytometry of CALLA-positive cells in tissues of leukemic SCID mice; assay type: in vivo, SCID mice (human leukemic cells)
Description: A first assay comprised an immunofluorescence analysis of cALL antigen (CALLA)-positive cells. All BV173 cells but not normal murine hematopoietic cells express this antigen (assay sensitivity=10^-2). Single cell suspensions were prepared for flow cytometry analysis from peripheral blood, spleen and bone marrow cells of the leukemic SCID mice by centrifugation on a lymphocyte-M gradient (Cedarlane Labs, Ltd., Ontario, Canada). Cells (1×10^5) were stained with the FITC-conjugated mouse anti-CALLA monoclonal antibody (Becton-Dickinson Immunocytometry Systems, San Jose, Calif.) to human CD10 antigen. After staining, cells were washed and analyzed by flow cytometry using the Epics Profile Analyzer (Coulter Electronic).
(§1) To determine whether synthetic phosphorothioate oligodeoxynucleotides targeted against the bcr-abl junction of […] cells would modify the disease process in SCID mice. SCID mice were injected with 10^6 BV173 cells. The mice then received 1 mg of sense (ATCAATAAGG AAGCCCTTCAGCG, SEQ ID NO:34) or antisense ([…] ATTGAT, SEQ ID NO:29) b2/a2 bcr-abl phosphorothioate oligodeoxynucleotides (pyrogen leven <1 Eu/mg; 0.2 ml in Iscove modified Dulbecco medium in 5-10 seconds) intravenously for each of 9 consecutive days, beginning either 7 or 21 days after introducing 10^6 BV173 cells. Control mice received the diluent (iscove's modified Dulbecco medium) only. These time points approximate distinct disease stages in humans.

[2] = tested on: bcr-abl (b2/a2) transcripts; assay: RT-PCR of bcr-abl transcripts in tissues of leukemic SCID mice; assay type: in vivo, SCID mice (human leukemic cells)
Description: According to a third assay, the extent of leukemic disease was assessed by chain RT-PCR to monitor the expression of b2/a2 transcripts (assay sensitivity=[…]) in total RNA isolated from bone marrow cells, splenocytes, peripheral blood leukocytes, liver, lung and brain tissues. Depending on the number of BV173 cells injected, various numbers of leukemic cells were detected by clonogenic assay and RT-PCR in murine tissues, 3 and 6 weeks after injection. A few days before the expected death of leukemic SCID mice, approximately 80, 65, and 10% cALLA-positive cells were detected in bone marrow cells, splenocytes and peripheral blood leukocytes, respectively.
as §1
At 7 (+7) and 21 (+21) days after injecting SCID mice with 10^6 BV173 cells, single cell suspensions were prepared from various tissues. After lysing red cells with 0.83% NH4 Cl buffered with 0.17 mM Tris-HCl, pH 7.4, total RNA was extracted as described (Chomczynski and Sacchi, Anal. Biochem. 162, 156 (1987)) and the suspension was divided into two equal aliquots. Bcr-abl and β-actin transcripts were reverse-transcribed and amplified with specific primers and Taq polymerase as described by Szczylik et al., Science 253, 562 (1991). Amplification products were separated on a 2% agarose gel, transferred to a nitrocellulose filter and hybridized with a synthetic 40-base c-abl fragment or 20-base β-actinfragment end-labeled with [γ^32 -P]-ATP and polynucleotide kinase. The c-abl probe recognizes an amplified 257-bp sequence containing the bcr-abl junction: the β-actin probe recognizes a 209-bp fragment, contained within the 5' and 3' β-actin primers (Tokunaga et al., Nucleic Acids Res. 14, 2829 (1986)).

[3] = tested on: Philadelphia chromosome-positive blast cells of CML patients in blast crisis, L-6 (b2a2) type junction; assay: Colony formation of CML blast crisis patient cells expressing the b2a2 (L-6) junction; assay type: cell-based, human
[4] = 1 mg/day i.v. x9 from day +7, 26 days after last treatment (6 weeks)
[5] = from day +21, 1 mg/day x9, 26 days after treatment (8 weeks)

| Substance | inhibition of proliferation of BV173 cells (BV173 cells (b2/a2)) | CALLA+ cells, bone marrow ([1]; 1 mg/day i.v. x9 from day +7, 12 days after last treatment (4 weeks)) | CALLA+ cells, bone marrow [1, 4] | CALLA+ cells, peripheral blood [1, 4] | CALLA+ cells, spleen [1, 4] | CALLA+ cells, peripheral blood ([1]; from day +21, 1 mg/day x9, 12 days after last treatment (6 weeks), control 1.0±0.1) | CALLA+ cells, spleen ([1]; from day +21, 1 mg/day x9, 12 days after last treatment (6 weeks), control 1.9±0.1) | CALLA+ cells, bone marrow ([1]; from day +21, 1 mg/day x9, 12 days after last treatment (6 weeks), control 17.7±1.8) | CALLA+ cells, bone marrow [1, 5] | CALLA+ cells, peripheral blood [1, 5] | CALLA+ cells, spleen [1, 5] | bcr-abl transcripts in tissues ([2]; from day +7, 12 days after last treatment (4 weeks), blood, spleen, bone marrow, liver, lung, brain) | bcr-abl (b2/a2) transcripts in tissues ([2]; from day +7, 26 days after last treatment (6 weeks), blood leukocytes, spleen, bone marrow, liver, lung, brain) | bcr-abl transcripts in tissues ([2]; from day +21, 12 days after last treatment (6 weeks), blood, spleen, bone marrow, liver, lungs, brain) | bcr-abl transcripts in tissues ([2]; from day +21, 26 days after treatment (8 weeks)) | % Inhibition ([3]; Table 1, patient 1, number of colonies vs untreated) | Number of Colonies, Antisense-treated ([3]; Table 1, patient 3, 40 μg/ml at start, 20 μg/ml 18 h later, untreated 480 ± 88) |
| --- | --- | --- | --- | --- | --- | --- | --- | --- | --- | --- | --- | --- | --- | --- | --- | --- | --- |
| SEQ ID NO:34: phosphorothioate sense sequence ATCAATAAGGAAGCCCTTCAGCG (23-mer b2a2 sense) (sense ATCAATAAGGAAGCCCTTCAGCG; all phosphorothioate, sugars by position and methylation of C not given here) | no inhibition | detected in bone marrow of control and sense-treated animal | 16.8±1.8% | 1.9±0.2% | 4.1±0.2% | 0.9±0.1 | 1.9±0.8% | 10.0±0.5% | 23.9±5.0% | 2.0±0.3% | 9.9±1.8% | bcr-abl transcripts in each of the tissues analyzed except brain | readily detected in each tissue | Bcr-abl transcripts were detected | readily detectable |  |  |
| SEQ ID NO:3: synthetic 18-mer GAAGGGCTTC TTCCTTAT specific for the 18-nucleotide target sequence of the L-6 bcr-abl junction (antisense GAAGGGCTTCTTCCTTAT; chemistry not given here) |  |  |  |  |  |  |  |  |  |  |  |  |  |  |  | 75% | 50 ± 12 colonies |
